From patent US20150018380A1, “Methods of Screening for Activation Deaminase Inhibitors Through Nuclear Import Inhibitors” (University of Rochester, priority 2012, published 2015)
Entries after “also recorded” stand apart in the source; their conditions may differ. Read-outs that look alike come from different tables or passages of the source.

Assays:
AID = target: T1, AID (Homo sapiens, UniProt Q9GZX7); assay: AID-EGFP-HeLa HCS assay LOPAC screen for inhibitors of AID nuclear import; type: cell-based
T1 construct: expressed in transfected cells; host or cells: HeLa S3 (lentiviral transduction, pLVTHM, EF1-alpha promoter)
T1 sequence (Q9GZX7 whole entry): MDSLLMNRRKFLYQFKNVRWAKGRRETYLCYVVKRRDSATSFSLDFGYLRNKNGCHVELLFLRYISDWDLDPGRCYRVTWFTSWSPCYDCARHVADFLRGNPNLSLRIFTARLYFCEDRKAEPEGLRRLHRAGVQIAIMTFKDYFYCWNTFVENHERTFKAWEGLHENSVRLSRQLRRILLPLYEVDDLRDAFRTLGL
Description: The LOPAC screen was performed using 20 μM of each compound in duplicate with a 3-hour incubation followed by LMB treatment.
Maximum values, set to 100% corresponds to conditions of DMSO treated cells. Minimum values, set approximately to 0%, corresponds to conditions of only 200 ng/mL LMB treatment.

glucocorticoid receptor = conditions: prior screen, cited from earlier work
AID-EGFP [1] = assay: LMB / Ratjadone A response of AID-EGFP in stable HeLa AID-EGFP cells; type: cell-based, human; conditions: for AID-EGFP localization / nuclear retention: 100 ng/ml for 180 min
From the text: HCS assay development involves the selection of the most appropriate cellular model (Dudgeon et al., 2010, J. Biomol. Screen, 15: 766-782; Nickischer et al., 2006, Methods Enzymol, 414: 389-418; Williams et al., 2006, Methods Enzymol, 414: 364-89). In this regard, AID shuttling is not specific to B cells, making it possible to use a variety of cell types to study AID structure and function (Okazaki et al., 2002, Nature, 416: 340-5; Yoshikawa et al., 2002 Science, 296: 2033-6). However, the ability of LMB to induce quantitative AID nuclear retention was more uniform in HeLa cells (a finding has been independently confirmed by comparing the AID responses to LMB in transiently transfected HeLa, HEK293T, U2OS, A549, CaCo2, HepG2 and CHO cells). […] Consequently, AID-EGFP was subcloned from a pIRES vector into the lentiviral vector pLVTHM (Addgene) using the EF1-α promoter to drive moderate to low level expression. pLV-AID-EGFP psuedotyped virus was transduced into HeLa S3 cells (ATCC) that were live-cell flow sorted to obtain a homogenous population of fluorescent cells. Subcloning of a cell line was not thought to be necessary given the ability to threshold fluorescence in individual cells during high content screening. These cells have been maintained in culture with little or no loss of fluorescence for 2 months. HeLa AID-EGFP cells plated into 384-well plates at varying cell densities (1,250 to 10,000 cells per well) were simultaneously fixed with formaldehyde and counter stained with Hoechst and then imaged using both the IXU Ultra and ArrayScan VTI platforms with 10× and 20× objectives. Image quantification was performed with the multi-wavelength cell scoring (MWCS) & translocation enhanced (TE) image analysis modules and the molecular translocation (MT) image algorithm for the IXU Ultra and ArrayScan VTI, respectively. Based on image acquisition, 2,500 cells per well was determined ideal for either platform regardless of the objective. […] To establish the LMB response within the context of an HCS system and assess the assay parameters, cells were treated in 384-well format with varying doses (0.2 to 200 ng/ml) of either LMB or Ratjadone A (chemically related to LMB) for varying durations up to 200 min. […] There was a 4.5-fold difference between the nuclear to cytoplasmic (N/C) fluorescence ratio of LMB-treated cells and cells only treated with the solvent for LMB (0.5% methanol).
For the LOPAC high content screen (HCS), 2,500 AID-EGFP-HeLa cells were cultured per well on a 384-well plate. Cells were seeded and cultured overnight. Cells were exposed to 20 μM of test compound for 3 hours, followed by a 200 ng/mL LMB treatment for 3 hours. Experiments were run in duplicate. […]

AID-EGFP [2] = assay: LMB response in HEK293T cells transiently co-transfected with AID-EGFP and mCherry-H1: AID; type: cell-based, human
Description: (§1) HEK293T cells in 40 μl were plated robotically into 384-well plates using a Multi-Drop (ThermoScientific) such that in 24 hours the cell density is approximately 60% confluency. EGFP-AID and mCherry-H1 plasmids were mixed at a 1:1 molar ratio in Turbofect reagent as per the manufacture's protocol (Fermentas) and dispensed from a trough into the 384-well HEK293T cell cultures with a Perkin Elmer Janus robot liquid handling system. Each well received 25 ng of total plasmid DNA and uniform dispersal of the transfection mixture was ensured by placing the plates on the Perkin Elmer plate mixer at the highest speed setting for 30 sec. Due to the small culture volume, there was no effect on cell attachment to the plates but was critical for uniform transfection. Ranges of both EGFP-AID: mCherry-H1 plasmid ratios and amount of total plasmid DNA required for transfection of cells in 384-well format were evaluated. For current plasmid stocks, a 1:1 plasmid ratio gave the most consistent expression of both proteins.
(§2) Co-expression of other counter screen proteins and their response to LMB was evaluated using co-transfected HEK293T cells. […]

hnRNP A1 = assay: LMB response in HEK293T cells transiently cotransfected with ACF-EGFP and mCherry-hnRNPA1: hnRNP A1; type: cell-based, human; conditions: LMB treatment; transiently transfected HEK293T
From the text: (§3) Wild type human ACF, hnRNP A1, and TALDO1 cDNAs are obtained from BlueHeron (NM_014576.2, NM_002136.2 and NM_006755.1) cDNAs for ACF and A1 were subcloned into pGEM3 and pIRES, respectively. Criteria used for transient transfection, validating protein expression and determining appropriate N/C ratio baselines are described elsewhere herein. Two counter screens for shuttling proteins, run in parallel enable the identification of AID-selective nuclear import inhibitors.
(§4) Data presented herein show images from HEK293T cells 24 hr after being transiently cotransfected with ACF-EGFP and mCherry-hnRNPA1. FIG. 5G through FIG. 5I show images from a 384-well plate for EGFP-ACF, mCherry-hnRNPA1 and two color composite respectively. […] ACF and hnRNP A1 are selected because they shuttle using different mechanism than AID and because their function in the cell differs markedly from one another and from AID and H1. ACF binds to RNA through RNP domains that comprise three separate and centrally located RNA Recognition Motifs (RRM), required for ACF's function as an editing site recognition cofactor for APOBEC1 mRNA editing activity in the cell nucleus (Hintersteiner et al., 2010, ACS Chem Biol, 5(10): 967-79). […] ACF nuclear import is determined by a unique amino acid motif centrally located and a Cterminal, CRM1-dependent nuclear export signal (Chahine et al., 2009, Pharmacol Rev, 61(3): 358-72).

mCherry-TALDO1 = assay: LMB response in HeLa cell line stably expressing AID-EGFP and mCherry-TALDO1: TALDO1; type: cell-based, human; conditions: LMB treatment; stable HeLa AID-EGFP/mCherry-TALDO1
From the text: (§5) A HeLa cell line stably expressing equivalent levels of AID-EGFP and mCherry-TALDO1 was established by transducing cells with a lentiviral vector encoding AID-EGFP. mCherry-TALDO1 was transfected/selected after the AID-EGFP line was sorted and selected. The cell line was then sorted for the co-expression of both proteins.
(§6) FIG. 23 depicts the expression of AID-EGFP and mCherry-TALDO1, as measured by flow cytometry (FIG. 23A) and western blot (FIG. 23B). […] FIG. 24 depicts the localization of AID-EGFP and mCherry-TALDO1 in control treated cells and LMB treated cells. […] This cell line is then used in a simultaneous primary/counter screen for compounds that selectively alter AID import, while not affecting TALDO1 localization.

histone H1 = assay: LMB response in HEK293T cells transiently co-transfected with AID-EGFP and mCherry-H1: H1; type: cell-based, human; conditions: LMB treatment
Description: as §1, §2

ACF = assay: LMB response in HEK293T cells transiently cotransfected with ACF-EGFP and mCherry-hnRNPA1: ACF; type: cell-based, human; conditions: LMB treatment; transiently transfected HEK293T
From the text: as §3, §4

AID-EGFP [3] = assay: LMB response in HeLa cell line stably expressing AID-EGFP and mCherry-TALDO1: AID; type: cell-based, human; conditions: LMB treatment; stable HeLa AID-EGFP/mCherry-TALDO1
From the text: as §5, §6

AID-EGFP [4] = assay: LMB response in 293T cells transiently co-transfected with AID-EGFP and mCherry-TALDO1: AID; type: cell-based, human; conditions: LMB treatment; 293T co-transfected with mCherry-TALDO1
Description: (§7) TALDO1 in pIRES was transiently co-transfected with AID-EGFP in 293T cells and fluorescence images taken 24 hours post-transfection. AID-EGFP was predominantly cytoplasmic while mCherry-TALDO1 was predominantly nuclear (FIG. 5P through FIG. 5R). […] It is concluded that co-expression of AID and TALDO1 is achievable and that the proteins have different N/C ratios even though they use the same importins.

TALDO1 = assay: LMB response in 293T cells transiently co-transfected with AID-EGFP and mCherry-TALDO1: TALDO1; type: cell-based, human; conditions: LMB treatment; 293T co-transfected with AID-EGFP
Description: as §7

CRM1 = CRM1 (Homo sapiens, UniProt O14980); conditions: cited from earlier work
CRM1, sequence (O14980 whole entry): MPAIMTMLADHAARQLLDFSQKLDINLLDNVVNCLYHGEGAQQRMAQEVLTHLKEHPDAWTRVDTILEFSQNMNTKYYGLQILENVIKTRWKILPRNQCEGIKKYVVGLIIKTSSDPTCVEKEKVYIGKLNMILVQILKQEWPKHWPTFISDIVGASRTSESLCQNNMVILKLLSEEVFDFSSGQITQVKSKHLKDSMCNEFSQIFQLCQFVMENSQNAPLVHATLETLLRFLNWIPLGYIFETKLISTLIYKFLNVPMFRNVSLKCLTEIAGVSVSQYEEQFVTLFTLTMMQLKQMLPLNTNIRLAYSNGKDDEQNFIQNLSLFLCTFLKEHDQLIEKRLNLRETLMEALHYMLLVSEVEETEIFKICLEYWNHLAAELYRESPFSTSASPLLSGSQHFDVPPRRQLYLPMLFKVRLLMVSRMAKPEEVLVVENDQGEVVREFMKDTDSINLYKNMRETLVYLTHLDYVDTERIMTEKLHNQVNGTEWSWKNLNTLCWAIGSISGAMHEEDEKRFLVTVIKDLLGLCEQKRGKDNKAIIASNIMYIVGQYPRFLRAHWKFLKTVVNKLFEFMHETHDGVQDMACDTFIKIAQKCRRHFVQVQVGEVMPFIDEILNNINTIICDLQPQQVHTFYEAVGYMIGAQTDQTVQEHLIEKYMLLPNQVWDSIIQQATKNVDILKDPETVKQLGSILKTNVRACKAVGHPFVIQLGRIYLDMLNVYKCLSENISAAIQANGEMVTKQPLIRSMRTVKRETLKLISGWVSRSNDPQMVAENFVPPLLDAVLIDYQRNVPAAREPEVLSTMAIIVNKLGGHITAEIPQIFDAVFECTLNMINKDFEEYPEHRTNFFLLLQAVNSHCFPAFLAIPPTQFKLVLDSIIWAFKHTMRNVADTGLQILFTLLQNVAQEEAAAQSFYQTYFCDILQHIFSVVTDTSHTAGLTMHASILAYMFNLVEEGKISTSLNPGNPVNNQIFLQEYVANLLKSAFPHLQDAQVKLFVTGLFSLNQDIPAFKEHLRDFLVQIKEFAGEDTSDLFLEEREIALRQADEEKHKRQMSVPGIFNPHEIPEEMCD

[5] = 20 μM compound for 3 hours, then 200 ng/mL LMB for 3 hours, AID-EGFP-HeLa cells, 2,500 cells/well, duplicate

## O=C1c2c(O)ccc(O)c2C(=O)c2c(NCCNCCO)ccc(NCCNCCO)c21 [Mitoxantrone]
AID; [5]
  inhibition at 20 µM: > 50%

## Cl.Cl.O=C1c2c(O)ccc(O)c2C(=O)c2c(NCCNCCO)ccc(NCCNCCO)c21 [M6545]
AID; LOPAC screen, 20 μM
  fluorescence interference (false positive hit): false positive autofluorescent

## CN(C)S(=O)(=O)c1ccc2c(c1)/C(=C/c1cc3c([nH]1)CCCC3)C(=O)N2 [SU 6656]
AID; [5]
  inhibition at 20 µM: > 50%

## CC(C)(C)c1ccc(S(=O)(=O)/C=C/C#N)cc1 [Bay 11-7085]
Glucocorticoid receptor
  nuclear import of the glucocorticoid receptor: inhibit the nuclear import of the glucocorticoid receptor
Glucocorticoid receptor; listed as SID 53777289
  nuclear import of the glucocorticoid receptor: inhibited nuclear import of the glucocorticoid receptor
AID; [5]
  inhibition of AID nuclear import: greater than 50%

## Cc1c2ccncc2c(C)c2c1[nH]c1ccccc12 [Ellipticine]
AID; [5]
  inhibition at 20 µM: > 50%

## Ratjadone A
AID-EGFP [1]; HeLa AID-EGFP cells
  AID-EGFP localization / nuclear retention: maximal nuclear retention of AID-EGFP; also recorded: nuclear AID-EGFP localization

## CCC(=C/[C@H](C)C/C=C/C(C)=C/[C@@H](C)C(=O)[C@@H](C)[C@H](O)[C@@H](C)C/C(C)=C/C(=O)O)/C=C/[C@@H]1OC(=O)C=C[C@@H]1C [LMB, Leptomycin B]
AID-EGFP [2]; 50 ng/ml LMB for 90 min, transiently transfected HEK293T
  AID-EGFP nuclear retention: increased retention in their nuclei; also recorded: selective redistribution of AID-EGFP
AID-EGFP [2]; transient system, HEK293T
  effect of increasing LMB above 50 ng/ml on EGFP-AID retained in the nucleus: did not increase the amount of EGFP-AID retained in the nucleus
hnRNP A1
  hnRNP A1 localization: does not respond
AID-EGFP [1]; HeLa AID-EGFP cells
  AID-EGFP localization / nuclear retention: maximal nuclear retention of AID-EGFP; also recorded: nuclear AID-EGFP localization
AID-EGFP [1]; 200 ng/mL LMB for 3 hours, control AID-EGFP-HeLa cells without test compound
  nuclear localization of AID-EGFP: approximately 80%
AID-EGFP [1]; HeLa AID-EGFP cells, 384-well
  difference in nuclear to cytoplasmic (N/C) fluorescence ratio versus solvent (0.5% methanol) treated cells: 4.5 fold
mCherry-TALDO1
  mCherry-TALDO1 localization: remained nuclear
Histone H1
  histone H1 localization: remained nuclear; also recorded: do not affect H1 nuclear localization
ACF
  ACF localization: nuclear retention of ACF; also recorded: redistribution of ACF-EGFP
AID-EGFP [3]
  AID-EGFP localization: shift localization from primarily cytoplasmic to primarily nuclear
AID-EGFP [4]
  AID-EGFP nuclear retention: significant nuclear retention of AID-EGFP; also recorded: selective redistribution of AID-EGFP
TALDO1
  nuclear mCherry fluorescence due to TALDO1: did not noticeably affect
CRM1
  CRM1-mediated nuclear export of AID: inhibited
